# Reference: patent US11866450B2, “Modulators of Cystic Fibrosis Transmembrane Conductance regulator, pharmaceutical compositions, methods of treatment, and process for making the modulators” (priority 2018, dated 2024)
# Target: CFTR-mediated chloride transport (Homo sapiens, UniProt P13569)
# Format: cell-based
# Conditions: enteroid cells incubated with test compound 18-24 hours, acute 10 μM forskolin and 300 nM Compound III; for Max. Activity: % of chloride transport with 3 μM Compound A, 3 μM Compound II and 300 nM acute Compound III triple combination control
# Method in brief: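 Human intestinal enteroid cells incubated with compound 18–24 h at 37° C., then membrane potential dye (FLIPR) read 15 min after chloride-free stimulation with 10 μM forskolin, 100 μM IBMX and 300 nM Compound III. AUC expressed as % of triple-combination control (3 μM Compound A, 3 μM Compound II, 300 nM Compound III).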
# CFTR-mediated chloride transport, sequence (P13569 whole entry, looked up): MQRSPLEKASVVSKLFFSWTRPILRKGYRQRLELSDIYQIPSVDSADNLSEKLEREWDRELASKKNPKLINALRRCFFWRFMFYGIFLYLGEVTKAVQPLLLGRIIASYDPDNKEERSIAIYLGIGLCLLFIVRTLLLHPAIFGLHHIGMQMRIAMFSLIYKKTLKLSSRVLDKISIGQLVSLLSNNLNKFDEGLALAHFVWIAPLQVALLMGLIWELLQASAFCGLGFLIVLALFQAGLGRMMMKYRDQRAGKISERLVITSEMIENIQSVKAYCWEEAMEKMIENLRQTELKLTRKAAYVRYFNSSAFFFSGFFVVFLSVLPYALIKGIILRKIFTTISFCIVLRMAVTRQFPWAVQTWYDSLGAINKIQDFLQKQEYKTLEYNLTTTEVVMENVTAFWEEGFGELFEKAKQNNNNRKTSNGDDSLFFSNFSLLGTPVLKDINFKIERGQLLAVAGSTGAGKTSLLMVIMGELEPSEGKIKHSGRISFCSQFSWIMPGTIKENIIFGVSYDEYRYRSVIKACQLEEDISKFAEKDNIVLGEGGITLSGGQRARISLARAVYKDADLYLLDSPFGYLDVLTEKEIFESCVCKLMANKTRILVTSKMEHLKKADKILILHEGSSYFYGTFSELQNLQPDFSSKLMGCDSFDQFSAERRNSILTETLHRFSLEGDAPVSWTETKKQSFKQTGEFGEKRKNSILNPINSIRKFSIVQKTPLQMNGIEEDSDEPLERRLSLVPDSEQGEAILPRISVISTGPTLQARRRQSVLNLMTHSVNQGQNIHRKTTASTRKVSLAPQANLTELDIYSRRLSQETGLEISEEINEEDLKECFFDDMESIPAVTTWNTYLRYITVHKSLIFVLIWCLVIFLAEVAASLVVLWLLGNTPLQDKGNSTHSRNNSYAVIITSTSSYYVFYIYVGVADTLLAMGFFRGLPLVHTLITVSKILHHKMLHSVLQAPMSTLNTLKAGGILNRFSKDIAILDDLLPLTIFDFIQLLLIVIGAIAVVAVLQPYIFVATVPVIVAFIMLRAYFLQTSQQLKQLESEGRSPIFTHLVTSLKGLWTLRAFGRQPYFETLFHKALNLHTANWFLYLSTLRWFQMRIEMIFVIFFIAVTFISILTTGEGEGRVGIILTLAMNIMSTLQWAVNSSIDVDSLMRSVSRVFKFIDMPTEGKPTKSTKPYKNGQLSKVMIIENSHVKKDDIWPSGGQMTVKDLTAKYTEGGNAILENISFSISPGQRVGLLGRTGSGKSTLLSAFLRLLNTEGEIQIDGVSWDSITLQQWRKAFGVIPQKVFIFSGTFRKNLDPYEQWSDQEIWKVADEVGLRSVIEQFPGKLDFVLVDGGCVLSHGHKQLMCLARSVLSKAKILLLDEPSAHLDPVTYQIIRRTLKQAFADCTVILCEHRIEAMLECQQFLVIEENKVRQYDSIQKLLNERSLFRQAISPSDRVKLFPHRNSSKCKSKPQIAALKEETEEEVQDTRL
SMILES,EC50 [nM],Max. Activity
"CC1(C)C[C@H]2CCn3ccc(n3)S(=O)(=O)NC(=O)c3ccc(-n4ccc(OCCCC5(C(F)(F)F)CC5)n4)nc3N1C2 (single isomer, unassigned) [Compound 278, 19,19-dimethyl-4-(3-{3-[1-(trifluoromethyl)cyclopropyl]propoxy}-1H-pyrazol-1-yl)-10λ^6-thia-1,3,9,14,21-pentaazatetracyclo[15.2.1.111,14.02,7]henicosa-2,4,6,11(21),12-pentaene-8,10,10-trione]",> 3000,+ (+ is <30%)
"CC1(C)C[C@@H]2CCCNc3cccc(n3)S(=O)(=O)NC(=O)c3ccc(N4CCC(OCCC5(C(F)(F)F)CC5)C4=O)nc3N1C2 (stereo partly drawn) [Compound 158, (14S)-12,12-Dimethyl-8-(2-oxo-3-{2-[1-(trifluoromethyl)cyclopropyl]ethoxy}pyrrolidin-1-yl)-2λ^6-thia-3,9,11,18,23-pentaazatetracyclo[17.3.1.111,14.05,10]tetracosa-1(22),5,7,9,19(23),20-hexaene-2,2,4-trione]",< 1000,+++ (+++ is >60%)
"Cc1c2cnn1CCC[C@@H]1CN(c3nc(-n4ccc(OCCC5(C(F)(F)F)CC5)n4)ccc3C(=O)NS2(=O)=O)C(C)(C)C1 (single isomer, unassigned) [Compound 113]",1000 to 3000,++ (++ is 30-60%)
"Cc1ccc2nc1S(=O)(=O)NC(=O)c1ccc(-n3ccc(OCCC4(C(F)(F)F)CC4)n3)nc1N1C[C@H](CCCN2)CC1(C)C (single isomer, unassigned) [Compound 149, 12,12,22-trimethyl-8-(3-{2-[1-(trifluoromethyl)cyclopropyl]ethoxy}-1H-pyrazol-1-yl)-2λ^6-thia-3,9,11,18,23-pentaazatetracyclo[17.3.1.111,14.05,10]tetracosa-1(23),5(10),6,8,19,21-hexaene-2,2,4-trione]",< 1000,+++ (+++ is >60%)
"CC1(C)C[C@@H]2CCCNc3nc(ccc3O)S(=O)(=O)NC(=O)c3ccc(-n4ccc(OCCC5C6(CC6)C56CC6)n4)nc3N1C2 [Compound 254, (14S)-8-[3-(2-{dispiro[2.0.2.1]heptan-7-yl}ethoxy)-1H-pyrazol-1-yl]-20-hydroxy-12,12-dimethyl-2λ^6-thia-3,9,11,18,23-pentaazatetracyclo[17.3.1.111,14.05,10]tetracosa-1(23),5,7,9,19,21-hexaene-2,2,4-trione]",< 1000,++ (++ is 30-60%)
"C[C@@H]1CC[C@H]2CN(c3nc(-n4ccc(OCCC5(C(F)(F)F)CC5)n4)ccc3C(=O)NS(=O)(=O)c3cccc(n3)N1)C(C)(C)C2 (single isomer, unassigned) [Compound 59, 12,12,17-trimethyl-8-(3-{2-[1-(trifluoromethyl)cyclopropyl]ethoxy}-1H-pyrazol-1-yl)-2λ^6-thia-3,9,11,18,23-pentaazatetracyclo[17.3.1.111,14.05,10]tetracosa-1(23),5(10),6,8,19,21-hexaene-2,2,4-trione]",< 1000,+++ (+++ is >60%)
"CC1(C)C[C@H]2CNc3cccc(n3)S(=O)(=O)NC(=O)c3ccc(-n4ccc(OCCC5(C(F)(F)F)CC5)n4)nc3N1C2 (single isomer, unassigned) [Compound 25, 6,6-dimethyl-10-(3-{2-[1-(trifluoromethyl)cyclopropyl]ethoxy}-1H-pyrazol-1-yl)-16λ^6-thia-2,7,9,15,21-pentaazatetracyclo[15.3.1.14,7.08,13]docosa-1(20),8,10,12,17(21),18-hexaene-14,16,16-trione]",< 1000,++ (++ is 30-60%)
"CC1(C)C[C@H]2CCCCOc3ccc(cc3)S(=O)(=O)NC(=O)c3ccc(-n4ccc(OCCC5(C(F)(F)F)CC5)n4)nc3N1C2 (single isomer, unassigned) [Compound 95, 12,12-dimethyl-8-(3-{2-[1-(trifluoromethyl)cyclopropyl]ethoxy}-1H-pyrazol-1-yl)-19-oxa-2λ^6-thia-3,9,11-triazatetracyclo[18.2.2.111,14.05,10]pentacosa-1(22),5,7,9,20,23-hexaene-2,2,4-trione]",< 1000,++ (++ is 30-60%)
"CC1(C)C[C@H]2CCCn3ccc(n3)S(=O)(=O)NC(=O)c3ccc(-n4ccc(OCCC5C(C)(C)C5(C)C)n4)nc3N1C2 (single isomer, unassigned) [Compound 206, 20,20-dimethyl-4-{3-[2-(2,2,3,3-tetramethylcyclopropyl)ethoxy]-1H-pyrazol-1-yl}-10λ^6-thia-1,3,9,14,22-pentaazatetracyclo[16.2.1.111,14.02,7]docosa-2(7),3,5,11(22),12-pentaene-8,10,10-trione]",< 1000,+ (+ is <30%)
"CC1(C)CC[C@H]2CCCCNc3cccc(n3)S(=O)(=O)NC(=O)c3ccc(-n4ccc(OCCC5(C(F)(F)F)CC5)n4)nc3N21 (single isomer, unassigned) [Compound 46, 12,12-dimethyl-8-(3-{2-[1-(trifluoromethyl)cyclopropyl]ethoxy}-1H-pyrazol-1-yl)-2λ^6-thia-3,9,11,20,25-pentaazatetracyclo[19.3.1.05,10.011,15]pentacosa-1(24),5,7,9,21(25),22-hexaene-2,2,4-trione]",> 3000,+ (+ is <30%)
"CC(C)C(COc1ccn(-c2ccc3c(n2)N2C[C@@H](CC2(C)C)OCCNc2cccc(n2)S(=O)(=O)NC3=O)n1)C(C)C (single isomer, unassigned) [Compound 249, 12,12-dimethyl-8-{3-[3-methyl-2-(propan-2-yl)butoxy]-1H-pyrazol-1-yl}-15-oxa-2λ^6-thia-3,9,11,18,23-pentaazatetracyclo[17.3.1.111,14.05,10]tetracosa-1(23),5(10),6,8,19,21-hexaene-2,2,4-trione]",< 1000,+++ (+++ is >60%)
"CC1(C)C[C@H]2C[C@@H](F)CNc3cccc(n3)S(=O)(=O)NC(=O)c3ccc(-n4ccc(OCCC5C6(CC6)C56CC6)n4)nc3N1C2 (single isomer, unassigned) [Compound 308, 8-[3-(2-{dispiro[2.0.2.1]heptan-7-yl}ethoxy)-1H-pyrazol-1-yl]-16-fluoro-12,12-dimethyl-2λ^6-thia-3,9,11,18,23-pentaazatetracyclo[17.3.1.111,14.05,10]tetracosa-1(22),5,7,9,19(23),20-hexaene-2,2,4-trione]",< 1000,+ (+ is <30%)
"[2H]c1ccc2nc1NCCC[C@@H]1CN(c3nc(-n4ccc(OCC([2H])([2H])C5C6(CC6)C56CC6)n4)ccc3C(=O)NS2(=O)=O)C(C)(C)C1 [Compound 298, (14S)-8-[3-(2-{dispiro[2.0.2.1]heptan-7-yl}-2,2-dideuterio-ethoxy)-1H-pyrazol-1-yl]-12,12-dimethyl(20-deuterio)-2λ^6-thia-3,9,11,18,23-pentaazatetracyclo[17.3.1.111,14.05,10]tetracosa-1(23),5,7,9,19,21-hexaene-2,2,4-trione]",< 1000,+++ (+++ is >60%)
"CC1(C)C[C@H]2CCCCNc3cccc(n3)S(=O)(=O)NC(=O)c3ccc(-n4ccc(OCCC5(C(F)(F)F)CC5)n4)nc3N1C2 (single isomer, unassigned) [Compound 30, 12,12-dimethyl-8-(3-{2-[1-(trifluoromethyl)cyclopropyl]ethoxy}-1H-pyrazol-1-yl)-2λ^6-thia-3,9,11,19,24-pentaazatetracyclo[18.3.1.111,14.05,10]pentacosa-1(23),5,7,9,20(24),21-hexaene-2,2,4-trione]",< 1000,+++ (+++ is >60%)
"CC(C)(C)CCC[C@H]1CCN(c2ccc3c(n2)N2C[C@@H](CCCNc4cccc(n4)S(=O)(=O)NC3=O)CC2(C)C)C1=O (single isomer, unassigned) [Compound 146]",< 1000,+++ (+++ is >60%)
"CC1(C)C[C@@H]2CCCNc3cccc(n3)S(=O)(=O)NC(=O)c3ccc(-n4ccc(OC[C@@H](O)CC5(C(F)(F)F)CC5)n4)nc3N1C2 (single isomer, unassigned) [Compound 284]",< 1000,+++ (+++ is >60%)
"CC1(C)C[C@@H]2CCCNc3cccc(n3)S(=O)(=O)NC(=O)c3ccc(N4CC[C@H](OCCCC5(C(F)(F)F)CC5)C4=O)nc3N1C2 (single isomer, unassigned) [Compound 243]",< 1000,+++ (+++ is >60%)
"CC1(C)C[C@@H]2CN1c1nc(-n3ccc(OCCC4(C(F)(F)F)CC4)n3)ccc1C(=O)NS(=O)(=O)c1cccc(n1)NCCO2 (single isomer, unassigned) [Compound 74, 12,12-Dimethyl-8-(3-{2-[1-(trifluoromethyl)cyclopropyl]ethoxy}-1H-pyrazol-1-yl)-15-oxa-2λ^6-thia-3,9,11,18,23-pentaazatetracyclo[17.3.1.111,14.05,10]tetracosa-1(22),5(10),6,8,19(23),20-hexaene-2,2,4-trione]",1000 to 3000,+ (+ is <30%)
"Cc1c2cnn1CCCC1CN(c3nc(-n4ccc(OCC(C)(C)C(F)(F)F)n4)ccc3C(=O)NS2(=O)=O)C(C)(C)C1 (single isomer, unassigned) [Compound 289, 20,20,22-Trimethyl-4-[3-(3,3,3-trifluoro-2,2-dimethylpropoxy)-1H-pyrazol-1-yl]-10λ^6-thia-1,3,9,13,14-pentaazatetracyclo[16.2.1.111,14.02,7]docosa-2,4,6,11(22),12-pentaene-8,10,10-trione]",< 1000,++ (++ is 30-60%)
"CC1(C)C[C@@H]2CN1c1nc(-n3ccc(OCCC(C4CC4)C4CC4)n3)ccc1C(=O)NS(=O)(=O)c1cccc(n1)NCCO2 (single isomer, unassigned) [Compound 163, 8-[3-(3,3-dicyclopropylpropoxy)-1H-pyrazol-1-yl]-12,12-dimethyl-15-oxa-2λ^6-thia-3,9,11,18,23-pentaazatetracyclo[17.3.1.111,14.05,10]tetracosa-1(23),5,7,9,19,21-hexaene-2,2,4-trione]",< 1000,++ (++ is 30-60%)
